Results: patent EP1401829B1, “NOVEL HETEROCYCLIC ANTIBACTERIAL COMPOUNDS” (Microbiotix, Inc., priority 2001, dated 2002)
Converted amounts (≈) assume the structure as drawn. Where two headings read alike, the source gives them in different places. Marks after values point to notes of the source that are not given here.

Assays:
E. fecium = experiment: Minimal Inhibitory Concentration (MIC) determination, 96 well plates; format: cell-based, Enterococcus fecium; settings: Enterococcus; HBI medium, 16 to 18 hours at 37°C; read-out: MIC (µg/ml) E. fecium
In short: (§1)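 Broth growth in Heart-Brain Infusion medium, seeded at about 1x10^5 CFU/ml, 16 to 18 hours at 37°C. Growth read at OD 600 nm as percent of untreated control; five concentrations per drug, five data points each, MIC reported in µg/ml.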

B. subtilis = experiment: as above; format: cell-based, Bacillus subtilis; settings: Bacillus subtilis; HBI medium, 16 to 18 hours at 37°C; read-out: MIC (µg/ml) B. subtilis
In short: as §1

MRSA1094 = experiment: MIC against clinically relevant strains; format: cell-based; settings: Staphylococcus aureus; methicillin resistant S. aureus strain
Protocol: (§2) The following methods were used to characterize representative compounds. Minimal Inhibitory Concentration (MIC) determinations. MIC values were determined in 96 well plates, with bacterial growth monitored at OD 600 nm in 200µl following an initial bacterial seeding at approximately 1x10^5 colony forming units (CFU)/ml. Each drug is evaluated at five concentrations, with five data points at each dilution. MIC values (µg/ml) were determined against actively growing cultures in Heart-Brain Infusion (HBI) medium. Cell growth in cultures supplemented with a test compound was calculated as a percent of control at OD 600 nm after 16 to 18 hours at 37°C. This plate format conserves test compound and provides precise, quantitative data with low standard deviation determinations. Polymerase IIIC (Pol IIIC) assay. DNA polymerase activity (or inhibition thereof) was measured in a 96-well plate format. B. subtilis Pol IIIC was isolated as described by Hammond and Brown (Protein Expr. Purif., 3: 65-70 (1992)). Each 25 µl assay contained 30 mM Tris, pH 7.5, 10 mM magnesium acetate, 4 mM dithiothreitol, 20% glycerol, with 25 µM dATP, dCTP, dGTP and 10 µM dTTP (^3H-labelled at 1.44 Ci/mmole) and 0.4 mg/ml activated calf thymus DNA as substrates, as described previously (see Barnes et al, op. cit). Assays were initiated by the addition of 0.025 to 0.06 units of enzyme 1 unit is the amount required to incorporate 250 pmoles of [^3H] dTMP in a standard assay), incubated for 10 minutes at 30°C and terminated by the addition of 200 µl of cold 10% trichloroacetic acid (TCA),10 mM sodium pyrophosphate. Precipitated labeled DNA was collected on glass fiber filter plates, washed, dried, and counted in a liquid scintillation counter. Determination of Ki values. DNA polymerase activity was measured in a 96-well plate format in the absence of dGTP or dATP, depending on the structure of the test compound. Each 25 µl assay contained 30 mM Tris, pH 7.5, 10 mM magnesium acetate, 4 mM dithiothreitol, 20% glycerol, with 25 µM dATP, dCTP, and 10 µM dTTP (^3H-labelled at 1.44 Ci/mmole) and 0.4 mg/ml activated calf thymus DNA as substrates, as described previously. To each well were added 2 µl of compound solution to give final concentrations ranging from 20 - 0.027 µg/ml in the assay. Assays were initiated by the addition of 0.025 to 0.06 units of enzyme (1 unit is the amount required to incorporate 250 pmoles of [^3H] dTMP in a standard assay), incubated for 10 minutes at 30 °C and terminated by the addition of 200 µl of cold 10% trichloroacetic acid, 10 mM sodium pyrophosphate. Precipitated labeled DNA was collected on glass fiber filter plates, washed, dried, and counted in a liquid scintillation counter. Ki is the concentration of test compound that reduces the control polymerase IIIC activity by 50 percent.
(§3) Compounds were also tested for antibacterial activity against certain clinically relevant strains, e.g., methicillin sensitive (MSSA) and methicillin resistant (MRSA) strains of Staphylococcus aureus.

MSSA108 = experiment: MIC against clinically relevant strains; format: cell-based; settings: Staphylococcus aureus; methicillin sensitive S. aureus strain
Protocol: as §2, §3

MRSA1132 = experiment: MIC against clinically relevant strains; format: cell-based; settings: Staphylococcus aureus; methicillin resistant S. aureus strain
Protocol: as §2, §3

MRSA 1123 = experiment: MIC against clinically relevant strains; format: cell-based; settings: Staphylococcus aureus, methicillin resistant S. aureus strain
Protocol: as §2, §3

E. fecalis = experiment: Minimal Inhibitory Concentration (MIC) determination, 96 well plates; format: cell-based, Enterococcus fecalis; settings: Enterococcus; HBI medium, 16 to 18 hours at 37°C; read-out: MIC (µg/ml) E. fecalis
In short: as §1

B. subtilis Pol IIIC = biological target: T1, B. subtilis Pol IIIC (Bacillus subtilis, UniProt P13267); experiment: Polymerase IIIC (Pol IIIC) assay, determination of Ki values; format: biochemical; settings: Ki (µM) Pol IIIC, assay in absence of dGTP or dATP; Ki is the concentration that reduces control polymerase IIIC activity by 50 percent
T1 construct: made in house
In short: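 Isolated B. subtilis Pol IIIC (0.025–0.06 units) run 10 min at 30°C in 30 mM Tris pH 7.5, 10 mM Mg acetate, 4 mM DTT, 20% glycerol. Substrates were 0.4 mg/ml activated calf thymus DNA, 25 µM dNTPs and 10 µM [3H]dTTP, with dGTP or dATP omitted per compound structure.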

S. aureus = experiment: Minimal Inhibitory Concentration (MIC) determination, 96 well plates; format: cell-based, Staphylococcus aureus; settings: Staphylococcus aureus, read-out: MIC (µg/ml) S. aureus
In short: (§4)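 Cultures seeded at approximately 1x10^5 CFU/ml in Heart-Brain Infusion medium were exposed to five compound concentrations, five data points each, for 16 to 18 hours at 37°C. Growth at OD 600 nm was expressed as percent of control, and MIC values are given in µg/ml.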

E. coli = experiment: as above; format: cell-based, Escherichia coli; settings: Escherichia coli; HBI medium, 16 to 18 hours at 37°C; read-out: MIC (µg/ml) E. coli
In short: as §4

S.aureus (Smith) = experiment: as above; format: cell-based, Staphylococcus aureus; settings: Staphylococcus aureus
In short: as §1

[1] = system: Staphylococcus aureus (Smith); experiment: In vivo efficacy of Compound 70 in mouse models; settings: mice, 10^8 CFU/mouse; positive control, 30mg/kg, t=0
Protocol: (§5) Swiss Webster mice, ca. 20 g each, were infected with Staphylococcus aureus (Smith strain) by the intraperitoneal route. Test compounds (2, 4, 5, 6, 7, 8, 10, 12) were dissolved in 10% dimethylsulfoxide in peanut oil to a concentration of 2 mg/ml. Vancomycin was used as positive control drug (i.e., protection from lethal infection). Fifteen minutes after infection, test compounds, vancomycin, or vehicle alone were given intraperitoneally to groups of five mice each. Animals were monitored for three days, and the number of mice surviving was tabulated for each treatment.
(§6) Using the same basic procedure as described above, the in vivo efficacy of Compound 70 was also evaluated at various doses in mice infected with S. aureaus (Smith), MRSA 1094, Enterococcus faecalis, or vancomycin-resistant Enterococcus faecalis strain VRE 700802. […] Negative controls were mice infected that received no treatment. Mucin was employed as an adjuvant to facilitate bacterial infection in mice, where indicated.

[2] = system: Enterococcus faecalis (ATCC 29212); experiment: In vivo efficacy of Compound 70 in mouse models; settings: mice, 3x10^7 CFU/mouse + 5% Mucin; positive control, 100mg/kg, t=0
Protocol: as §5, §6

MRSA 1094 = experiment: In vivo efficacy of Compound 70 in mouse models; parameters: species or system Staphylococcus aureus; settings: mice, 10^7 CFU/mouse + 5% Mucin; positive control, 30mg/kg, t=0
Protocol: as §5, §6

[3] = HBI medium, 16 to 18 hours at 37°C
[4] = HBI medium, 16 to 18 hours at 37°C, read-out: MIC (µg/ml) S.aureus (Smith)
[5] = table of MSSA/MRSA strains, read-out: MIC (µg/ml) S. aureus (Smith)

T1 sequence (P13267 whole entry): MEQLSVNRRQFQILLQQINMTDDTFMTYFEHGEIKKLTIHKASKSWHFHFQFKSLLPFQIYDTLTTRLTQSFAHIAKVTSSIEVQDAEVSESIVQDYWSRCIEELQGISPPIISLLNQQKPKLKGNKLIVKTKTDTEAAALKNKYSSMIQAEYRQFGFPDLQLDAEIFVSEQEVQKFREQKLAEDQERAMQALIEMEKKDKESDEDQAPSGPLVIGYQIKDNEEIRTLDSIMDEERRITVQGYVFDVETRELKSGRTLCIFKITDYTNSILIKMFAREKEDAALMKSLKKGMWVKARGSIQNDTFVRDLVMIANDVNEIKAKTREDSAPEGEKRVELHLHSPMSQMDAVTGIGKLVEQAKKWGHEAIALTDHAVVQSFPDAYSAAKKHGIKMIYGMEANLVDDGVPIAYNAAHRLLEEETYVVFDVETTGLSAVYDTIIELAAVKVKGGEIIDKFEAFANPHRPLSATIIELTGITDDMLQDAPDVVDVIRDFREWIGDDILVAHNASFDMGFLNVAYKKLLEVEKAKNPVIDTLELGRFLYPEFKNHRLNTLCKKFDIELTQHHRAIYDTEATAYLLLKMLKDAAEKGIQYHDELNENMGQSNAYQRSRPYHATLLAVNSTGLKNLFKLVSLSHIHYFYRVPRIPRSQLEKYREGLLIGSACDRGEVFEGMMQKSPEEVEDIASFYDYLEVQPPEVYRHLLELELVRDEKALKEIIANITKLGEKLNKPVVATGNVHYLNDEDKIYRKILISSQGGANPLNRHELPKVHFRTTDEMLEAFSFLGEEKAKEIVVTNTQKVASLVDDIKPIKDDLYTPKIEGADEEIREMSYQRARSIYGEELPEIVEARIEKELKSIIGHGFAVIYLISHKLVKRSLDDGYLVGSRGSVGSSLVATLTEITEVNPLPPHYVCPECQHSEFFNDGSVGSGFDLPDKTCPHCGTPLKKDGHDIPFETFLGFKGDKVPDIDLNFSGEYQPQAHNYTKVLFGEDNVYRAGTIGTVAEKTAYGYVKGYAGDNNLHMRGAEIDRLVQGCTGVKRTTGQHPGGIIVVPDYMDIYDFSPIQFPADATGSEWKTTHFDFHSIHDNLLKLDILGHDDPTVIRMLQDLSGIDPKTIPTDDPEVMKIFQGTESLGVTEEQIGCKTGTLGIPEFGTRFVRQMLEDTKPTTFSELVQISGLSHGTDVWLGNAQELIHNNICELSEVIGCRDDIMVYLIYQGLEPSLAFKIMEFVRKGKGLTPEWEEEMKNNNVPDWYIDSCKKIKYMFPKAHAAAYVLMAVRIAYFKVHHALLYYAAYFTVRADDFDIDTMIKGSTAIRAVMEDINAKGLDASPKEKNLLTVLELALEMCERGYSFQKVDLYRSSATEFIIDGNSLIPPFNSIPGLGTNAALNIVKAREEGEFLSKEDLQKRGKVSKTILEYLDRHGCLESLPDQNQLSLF

Structure (SMILES) | MIC (E. fecium) [µg/mL] | MIC (B. subtilis) [µg/mL] | MIC (MRSA1094) [µg/mL] | MIC (MSSA108) [µg/mL] | MIC (MRSA1132) [µg/mL] | MIC (MRSA 1123) [µg/mL] | MIC (E. fecalis) [µg/mL] | Ki (B. subtilis Pol IIIC) [µM] | MIC (S. aureus; [3]) [µg/mL] | MIC (S. aureus; table of MSSA/MRSA strains) [µg/mL] | MIC (E. coli) [µg/mL] | MIC (S.aureus (Smith); [4]) [µg/mL] | MIC (S.aureus (Smith); [5]) [µg/mL] | % Survival at 72 hours [1] | % Survival at 72 hours [2] | % Survival at 72 hours (MRSA 1094)
CCc1cc(Nc2cc(=O)n(CCCCN3CCN(c4c(F)cc5c(=O)c(C(=O)O)cn(CC)c5c4F)CC3)c(=O)[nH]2)ccc1C [Compound 7, 3-{4-[1-(1-ethyl-3-carboxy-4-oxo-6,8-difluoro-7-quinolyl)-4-piperazinyl]butyl}-6-(3-ethyl-4-methylanilino)uracil] | 1.25 (≈ 1.96 µM) | 0.156 (≈ 0.245 µM) | 0.625 (≈ 0.982 µM) | 0.313 (≈ 0.492 µM) | 0.625 (≈ 0.982 µM) | 0.625 (≈ 0.982 µM) | 1.25 (≈ 1.96 µM) | 0.021 | 0.625 (≈ 0.982 µM) | 0.625 (≈ 0.982 µM) | > 20 | 1.25 (≈ 1.96 µM) | 0.625 (≈ 0.982 µM) |  |  | 
CCc1cc(Nc2cc(=O)n(CCCCN3CCN(c4cc5c(cc4F)c(=O)c(C(=O)O)cn5-c4ccc(F)cc4F)CC3)c(=O)[nH]2)ccc1C [Compound 12, 3-{4-[1-(1-{2,4-difluorophenyl}-3-carboxy-4-oxo-6-fluoro-7-quinolyl)-4-piperazinyl]butyl}-6-(3-ethyl-4-methylanilino)uracil] | 5 (≈ 7.12 µM) | 0.156 (≈ 0.222 µM) | 0.625 (≈ 0.889 µM) | 0.625 (≈ 0.889 µM) | 0.625 (≈ 0.889 µM) | 1.25 (≈ 1.78 µM) | 2.5 (≈ 3.56 µM) | 0.018 | 0.313 (≈ 0.445 µM) | 0.313 (≈ 0.445 µM) | 2.5 (≈ 3.56 µM) | 0.313 (≈ 0.445 µM) | 0.313 (≈ 0.445 µM) |  |  | 
CN[C@H](CC(C)C)C(=O)N[C@H]1C(=O)N[C@@H](CC(N)=O)C(=O)N[C@H]2C(=O)N[C@H]3C(=O)N[C@H](C(=O)N[C@H](C(=O)O)c4cc(O)cc(O)c4-c4cc3ccc4O)[C@H](O)c3ccc(c(Cl)c3)Oc3cc2cc(c3O[C@@H]2O[C@H](CO)[C@@H](O)[C@H](O)[C@H]2O[C@H]2C[C@](C)(N)[C@H](O)[C@H](C)O2)Oc2ccc(cc2Cl)[C@H]1O [vancomycin, reference compound] |  |  |  |  |  |  |  |  |  |  |  |  |  | 100% (20/20)** | vancomycin (100mg/kg, t=0) 100% (10/10)** | 95% (19/20)**
